Results published in paper PMC6941357, “An in vitro toolbox to accelerate anti-malarial drug discovery and development” (Malaria Journal, 2020).
In brackets after ≈: the same amount, converted by molar mass. Read-outs that look alike come from different tables or passages of the source.

How the values were obtained:
Caco-2 cell monolayers = assay: Bidirectional permeability across Caco-2 cell monolayers; conditions: for efflux ratio: mean B–A/A–B Papp
Description: (§1) Bidirectional permeability was assessed across Caco-2 cell monolayers as described previously. Briefly, permeability experiments were performed using either aqueous transport buffer (pH 7.4 Hanks balanced salt solution containing 20 mM HEPES) or human plasma (Australian Red Cross Blood Service) in both the apical and basolateral chambers. […] The final DMSO concentration in the donor solution was 0.1% v/v.
(§2) Samples from the donor chamber were taken at the start and end of the experiment. […] Donor and acceptor samples were stored frozen at − 80 °C until analysis by LC–MS (Additional file 1: Table S2) with sample preparation as described previously. The mass balance and apparent permeability coefficient (Papp) were calculated as previously described.
(§3) Where human plasma was used as the transport medium, Papp values were calculated as shown above, with correction for the fraction unbound (fu) in the donor solution Cdonorinitial×fu with fu determined at a similar concentration to that used in the transport experiment. The apparent flux of lucifer yellow was based on an endpoint measurement assuming no lag time. The efflux ratio was calculated as the ratio of the mean B–A to A–B Papp values.

physchem = conditions: for Ssi (estimated solubility in the small intestine): based on measured FaSSIF solubility; for solubility: FaSSIF
From the text: Predicted Peff values were obtained from a calibration plot of literature Peff values vs measured Caco-2 Papp using either buffer or plasma as the transport medium (see Results section).

human plasma = conditions: methods UF, ED, EP or not described per compound, ref [6]–[22] of Additional file 1; cited from earlier work
CYP2D6 = CYP2D6 (Homo sapiens, UniProt P10635); assay: in vitro
Summary of the method: (§4)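 Human liver microsomes were incubated with an isoform-specific probe substrate, and formation of the CYP-mediated metabolite was measured by LC–MS after quenching in ice-cold acetonitrile with diazepam as internal standard. Inhibition was expressed as percent reduction in metabolite formation versus an uninhibited control.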

[1] = Binding to human liver microsomes via ultracentrifugation; format: in vitro ADME; conditions: human, read-out: Fraction unbound, HLM
Description: A suspension of human liver microsomes (HLM, XenoTech LLC, Lenexa, KS, USA) was prepared in 0.1 M phosphate buffer (pH 7.4) at a protein concentration of 0.4 mg/mL immediately prior to the experiment.
An ultracentrifugation method adapted from a previous publication was initially used to assess plasma protein binding and binding in the other media. […] Additional ultracentrifuge tubes containing spiked matrix were maintained at 37 °C, 5% or 10% CO2 or normal atmosphere conditions, with aliquots being taken within 0.5 h of the start and at the end of ultracentrifugation to serve as controls for the assessment of stability and to obtain a measure of the total concentration (Ctotal). Following ultracentrifugation, the pH was checked and an aliquot of protein-free supernate was taken from each ultracentrifuge tube for determination of the unbound concentration (Cunbound).
Total matrix and protein free samples were analysed using a matrix matching approach whereby each sample was mixed in a 1:1 ratio with the opposite blank medium (i.e. blank total matrix or blank protein free buffer). For example, plasma samples were mixed with blank pH 7.4 buffer whereas plasma supernatant samples were mixed with blank plasma. Each of the sample sets were then assayed against a common calibration curve prepared in a 1:1 mixture of total matrix and protein free pH 7.4 buffer. […] The standard deviation for fu was calculated using the propagation of errors approach as described previously. The potential for compound degradation was assessed by comparing the average value for Ctotal at the start and end of the experiment.

in vitro = conditions: human
Description: as §1, §2, §3

CYP1A2 = target: T1, CYP1A2 (Homo sapiens, UniProt P05177); assay: in vitro
T1 sequence (P05177 1-516): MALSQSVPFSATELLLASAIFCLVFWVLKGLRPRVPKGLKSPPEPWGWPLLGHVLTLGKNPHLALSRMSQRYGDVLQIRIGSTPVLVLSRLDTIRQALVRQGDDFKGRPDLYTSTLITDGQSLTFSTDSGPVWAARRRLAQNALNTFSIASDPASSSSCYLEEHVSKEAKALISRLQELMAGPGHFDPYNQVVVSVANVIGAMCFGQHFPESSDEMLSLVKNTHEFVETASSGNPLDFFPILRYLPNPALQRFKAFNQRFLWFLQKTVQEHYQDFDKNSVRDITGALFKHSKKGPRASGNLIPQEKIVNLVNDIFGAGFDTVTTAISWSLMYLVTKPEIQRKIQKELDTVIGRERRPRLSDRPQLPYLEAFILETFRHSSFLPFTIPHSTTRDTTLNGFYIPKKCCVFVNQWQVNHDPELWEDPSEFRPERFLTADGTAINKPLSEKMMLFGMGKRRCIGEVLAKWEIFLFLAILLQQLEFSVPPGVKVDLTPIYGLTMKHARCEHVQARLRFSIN
Summary of the method: as §4

[2] = matrix: human plasma, corrected for fu
[3] = based on ref 80 and control compounds
[4] = from Caco-2 Papp via calibration plot
[5] = liver microsomes, pH 7.4, 0.4 mg/mL protein
[6] = Caco-2, A–B Papp, matrix: human plasma, corrected for fu

Sequence of CYP2D6 (P10635 whole entry, canonical isoform): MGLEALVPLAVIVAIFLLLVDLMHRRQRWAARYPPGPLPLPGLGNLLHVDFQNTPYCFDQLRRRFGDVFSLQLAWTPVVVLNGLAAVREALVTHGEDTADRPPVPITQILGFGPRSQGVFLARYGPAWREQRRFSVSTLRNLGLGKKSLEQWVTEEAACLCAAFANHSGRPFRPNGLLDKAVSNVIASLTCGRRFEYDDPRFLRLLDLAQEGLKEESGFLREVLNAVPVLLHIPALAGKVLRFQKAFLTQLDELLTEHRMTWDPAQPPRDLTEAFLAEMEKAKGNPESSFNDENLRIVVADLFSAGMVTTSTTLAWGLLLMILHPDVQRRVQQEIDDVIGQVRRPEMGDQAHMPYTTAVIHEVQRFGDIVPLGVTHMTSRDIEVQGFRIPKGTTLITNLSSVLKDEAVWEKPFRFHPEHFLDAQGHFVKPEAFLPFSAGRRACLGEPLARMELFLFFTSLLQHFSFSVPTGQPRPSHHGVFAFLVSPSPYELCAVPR

CYP2D6 % inhibition at max conc (CYP2D6; microsomes) | IC50 (CYP2D6; microsomes) [µM] | IC50 (CYP1A2; microsomes) [µM] | Structure (SMILES) | An (absorption number) (physchem; Peff × tres/R, minimum 1) | Ssi (estimated solubility in the small intestine) (physchem) [µg/mL] | Permeability classification (physchem; [3]) | Predicted human Peff (physchem; [4]) | Literature fu (human plasma) | solubility (physchem) [µg/mL] | CYP1A2 % inhibition at max conc (CYP1A2; microsomes) | SLAD (physchem; Ssi × V (500 mL) × Mp) [mg] | IC50 (CYP2D6) [µM] | IC50 (CYP1A2) [µM] | fraction unbound at […] [1, 5] | also measured
– | – | – | CS(=O)(=O)O.FC1CCN(CCOc2ccc(C3CCC4(CC3)OOC3(OO4)C4CC5CC(C4)CC3C5)cc2)CC1 (stereo not drawn) [TDD-E209] | 13 | 87.0 | High (> 85% absorption (high)) | 11 10^−4 cm/s | – | – | – | – | – | – | – | A–B Papp (Caco-2 cell monolayers; [2]): > 300 10^−6 cm/s; B–A Papp (Caco-2 cell monolayers; [2]): > 300 10^−6 cm/s; SLAD (physchem): 579 mg
– | – | – | COc1cc(NC(C)CCCN)c2ncccc2c1 (stereo not drawn) [Primaquine] | – | – | – | – | 0.35-0.55 | > 2000 | – | – | – | – | – | inhibition at 20 µM (CYP2D6; human, microsomes, pH 7.4): 33%; fraction unbound at […] ([1]; microsomes, pH 7.4, 0.4 mg/mL protein): 0.56 ± 0.05; Papp A→B (in vitro; Caco-2, pH 7.4): 29 ± 4.5 ×10⁻⁶ cm/s; Papp B→A (in vitro; Caco-2, pH 7.4): 34 ± 1.5 ×10⁻⁶ cm/s; Permeability classification (physchem): High (key: High: > 85% absorption (high); Intermediate: 50–84% absorption (intermediate); Low: < 50% absorption (low)); An (absorption number) (physchem; human): 3.6; Predicted human Peff (physchem; human): 3.0 10^−4 cm/s; SLAD (physchem; human): > 3560 mg
nmi | > 20 | > 20 | O=C(NCCN1CCCC1)c1cc(-c2ccc(CN3CCOCC3)cc2)nc2ccc(F)cc12 [M5717] | 4.0 | > 3000 | High (> 85% absorption (high)) | 3.4 10^−4 cm/s | 0.23 | – | nmi | – | – | – | – | A–B Papp (Caco-2 cell monolayers; matrix: pH 7.4 buffer): 34 ± 2.6 10^−6 cm/s; B–A Papp (Caco-2 cell monolayers; matrix: pH 7.4 buffer): 39 ± 7.6 10^−6 cm/s; efflux ratio (Caco-2 cell monolayers; matrix: pH 7.4 buffer): 1.1; SLAD (physchem): > 6050 mg
– | – | – | COc1ccc2nc3cc(Cl)ccc3c(Nc3cc(CN4CCCC4)c(O)c(CN4CCCC4)c3)c2n1 [Pyronaridine] | 1.6 | – | High (> 85% absorption (high)) | 1.4 10^−4 cm/s | < 0.35 | > 2000 | – | > 1610 | 1.2 | > 20 | 0.29 ± 0.018 | Ki (CYP2D6): 0.75 µM; inhibition at 20 µM (CYP1A2; human, microsomes, pH 7.4): 30%; Papp B→A (in vitro; Caco-2): 41 ± 3 ×10⁻⁶ cm/s; efflux ratio (in vitro; Caco-2): 2.6; Papp A→B (in vitro; [6]): 16 ± 2.2 ×10⁻⁶ cm/s
– | – | – | CC(C)NC(=N)NC(=N)Nc1ccc(Cl)c(Cl)c1 [Chlorproguanil] | 1.8 | – | High (> 85% absorption (high)) | 1.5 10^−4 cm/s | – | 1100 (≈ 3820 µM) | nmi | 998 | 1.4 | > 20 | 0.052 ± 0.004 | Ki (CYP2D6): 0.87 µM; Papp B→A (in vitro; Caco-2): 61 ± 7.4 ×10⁻⁶ cm/s; efflux ratio (in vitro; Caco-2): 3.2; Papp A→B (in vitro; [6]): 19 ± 3 ×10⁻⁶ cm/s
– | – | – | CCCCN(CCCC)CCC(O)c1cc2c(Cl)cc(Cl)cc2c2cc(C(F)(F)F)ccc12 (stereo not drawn) [Halofantrine] | 13 | – | High (> 85% absorption (high)) | 11 10^−4 cm/s | – | 69.9 (≈ 140 µM) | – | 466 | 0.27 | > 20 | 0.002 ± 0.0002 | Ki (CYP2D6): 0.19 µM; CYP1A2 % inhibition at max conc (CYP1A2; human liver microsomes, at max conc, nmi = no measurable inhibition): nmi
– | – | – | CCCCN(CCCC)CC(O)c1cc(Cl)cc2c1-c1ccc(Cl)cc1/C2=C/c1ccc(Cl)cc1 (stereo not drawn) [Lumefantrine] | – | – | – | – | 0.003 | – | nmi | – | 2.9 | > 20 | – | Ki (CYP2D6): 1.8 µM
– | 8 | > 20 | COc1cc2[nH]c(C)c(-c3ccc(Oc4ccc(OC(F)(F)F)cc4)cc3)c(=O)c2cc1Cl [ELQ300] | 13 | 0.520 | High (> 85% absorption (high)) | 11 10^−4 cm/s | – | – | nmi | – | – | – | – | Ki (CYP2D6; microsomes): 5 µM; A–B Papp (Caco-2 cell monolayers; [2]): > 300 10^−6 cm/s; B–A Papp (Caco-2 cell monolayers; [2]): > 300 10^−6 cm/s; SLAD (physchem): 3 mg
39% | > 20 | 6.5 | COc1cc(N[C@H](C)CCCN)c2nccc(C)c2c1Oc1ccc(Cl)c(Cl)c1 [NPC1161B] | – | – | – | – | – | – | – | – | – | – | – | Ki (CYP1A2; microsomes): 3.8 µM; A–B Papp (Caco-2 cell monolayers; [2]): > 300 10^−6 cm/s; B–A Papp (Caco-2 cell monolayers; [2]): > 300 10^−6 cm/s
nmi | – | – | O=C1C(O)=C([C@H]2CC[C@H](c3ccc(Cl)cc3)CC2)C(=O)c2ccccc21 [Atovaquone] | 13 | – | High (> 85% absorption (high)) | 11 10^−4 cm/s | 0.001 | 1.83 (≈ 4.99 µM) | nmi | 12 | > 20 | > 20 | ~0.002 | –

Structure (SMILES) | CYP2D6 % inhibition at max conc (CYP2D6; microsomes) | IC50 (CYP2D6; microsomes) [µM] | IC50 (CYP1A2; microsomes) [µM] | An (absorption number) (physchem; Peff × tres/R, minimum 1) | Ssi (estimated solubility in the small intestine) (physchem) [µg/mL] | Permeability classification (physchem; [3]) | Predicted human Peff (physchem; [4]) | Literature fu (human plasma) | solubility (physchem) [µg/mL] | CYP1A2 % inhibition at max conc (CYP1A2; microsomes) | SLAD (physchem; Ssi × V (500 mL) × Mp) [mg] | IC50 (CYP2D6) [µM] | IC50 (CYP1A2) [µM] | fraction unbound at […] [1, 5] | also measured
CN(C)C[c-]1cccc1CNc1ccnc2cc(Cl)ccc12.[Fe+2].c1cc[cH-]c1 (stereo not drawn) [Ferroquine] | – | 0.83 | > 20 | 2.7 | 320 | High (> 85% absorption (high)) | 2.2 10^−4 cm/s | – | – | nmi | 426 | – | – | – | Ki (CYP2D6; microsomes): 0.52 µM; A–B Papp (Caco-2 cell monolayers; [2]): 32 ± 6.8 10^−6 cm/s; B–A Papp (Caco-2 cell monolayers; [2]): 24 ± 4.1 10^−6 cm/s; efflux ratio (Caco-2 cell monolayers; matrix: human plasma): 0.8
CC(C)(C)NCc1cc(Nc2ccnc3cc(Cl)ccc23)c2c(c1O)CCCC2 [Naphthoquine] | – | 1.1 | > 20 | 11 | 410 | High (> 85% absorption (high)) | 9.2 10^−4 cm/s | – | – | 33% | – | – | – | – | Ki (CYP2D6; microsomes): 0.68 µM; SLAD (physchem): 2250 mg
C[C@H]1[C@@H](O)O[C@@H]2O[C@@]3(C)CC[C@H]4[C@H](C)CC[C@@H]1[C@@]24OO3 [Dihydroartemisinin] | nmi | – | – | 5.2 | – | High (> 85% absorption (high)) | 4.4 10^−4 cm/s | 0.092 | – | – | 413 | > 20 | 11 | – | Ki (CYP1A2): 6.2 µM; fraction unbound at […] ([1]; liver microsomes, pH 7.4, instability evident, estimate only): 0.87 ± 0.1; Papp B→A (in vitro; Caco-2, pH 7.4): 49 ± 1.2 ×10⁻⁶ cm/s; Papp A→B (in vitro; Caco-2, pH 7.4, A–B Papp, matrix: pH 7.4 buffer): 50 ± 2.3 ×10⁻⁶ cm/s
Clc1ccc2c(N3CCN(CCCN4CCN(c5ccnc6cc(Cl)ccc56)CC4)CC3)ccnc2c1 [Piperaquine] | nmi | – | – | 13 | – | High (> 85% absorption (high)) | 11 10^−4 cm/s | < 0.001 | 103 (≈ 192 µM) | nmi | 685 | > 20 | > 20 | 0.013 ± 0.002 | –
